From US9227923B2, “Pesticidal carboxamides” (Bayer Intellectual Property GmbH, priority 2009, dated 2016) come the findings set out here.

Common to all, as to format: in vivo
In assay [1] the test system is Cucurbit Leaf Beetle (Aulacophora Femoralis). The experiment in a line: Test against cucurbit leaf beetle (Aulacophora femoralis), leaf dip. To be noted: active compound concentration of 100 ppm; second instar larvae; after 7 days. As to the method: (§1) Solvent: 3 parts by weight of dimethylformamide
(§2) Emulsifier: 1 part by weight of polyoxyethylene alkyl phenyl ether
Leaves of cucumber were immersed in the test solution at the appropriate concentration, and the leaves were dried in air. The leaves were then put in a plastic cup containing sterilized black soil and five Aulacophora femoralis at second instar larvae were released in the cup. The cups were placed in a temperature-controlled chamber at 25° C. After 7 days, the number of dead larvae was counted, and thus the insecticidal activity was calculated. An insecticidal activity of 100% means that all larvae were killed, whereas an insecticidal activity of 0% means that no larva was killed.

For assay [2], the system named is Tobacco Cutworm (Spodoptera litura) Larvae. Nature of the assay: Test against tobacco cutworm (Spodoptera litura) larvae, leaf dip. To be noted: active compound concentration of 100 ppm; third instar larvae; after 7 days. A digest of the protocol: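 Sweet potato leaves were dipped in the test solution (DMF solvent, polyoxyethylene alkyl phenyl ether emulsifier), air-dried and offered to ten third-instar larvae per dish at 25 °C, with fresh leaves added on days 2 and 4. Mortality was counted at day 7 and expressed as % insecticidal activity (100% = all dead).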

Assay [3] has as its system Two-Spotted Spider Mite (Tetranychus Urticae). Nature of the assay: Test against two-spotted spider mite (Tetranychus urticae), spray. To be noted: active compound concentration of 100 ppm; adult mites; after 7 days.
Text: as §1, §2

`CC(=O)NCc1ccc(C(=O)Nc2c(Cl)cc(C(F)(C(F)(F)F)C(F)(F)C(F)(F)F)cc2Cl)cc1Cl` (racemic) [Compound 5-242]: the insecticidal activity in assay [1] and in assay [2] was 100% in each case. The acaricidal activity in assay [3] is on record as 100%.
Regarding `CCC(=O)NCc1ccc(C(=O)Nc2c(Cl)cc(C(F)(C(F)(F)F)C(F)(F)C(F)(F)F)cc2Cl)cc1Cl` (racemic) [Compound 5-243], the insecticidal activity in assay [1] and in assay [2] was 100% in each case. For the same compound, the acaricidal activity in assay [3] was found to be 100%.
Turning to `O=C(CC(F)(F)F)NCc1ccc(C(=O)Nc2c(Cl)cc(C(F)(C(F)(F)F)C(F)(F)C(F)(F)F)cc2Cl)cc1Cl` (racemic) [Compound 5-244], the insecticidal activity in assay [1] and in assay [2] was 100% in each case. Also, in assay [3], the acaricidal activity was determined as 100%.
As to `CCc1cc(C(F)(C(F)(F)F)C(F)(F)F)cc(C)c1NC(=O)c1ccc(CNC(=O)C2CC2)cc1` [Compound 5-30], the insecticidal activity in assay [1] and in assay [2] was 100% in each case. The compound further showed an acaricidal activity in assay [3] of 100%.
`CCc1cc(C(F)(C(F)(F)F)C(F)(F)F)cc(C)c1NC(=O)c1ccc(CNC(=O)c2ccc(F)cc2)cc1` [Compound 5-36]: the insecticidal activity in assay [1] and in assay [2] was 100% each time. Further, in assay [3], the acaricidal activity stood at 100%.
Take `CCc1cc(C(F)(C(F)(F)F)C(F)(F)F)cc(C)c1NC(=O)c1ccc(CNC(=O)c2cccnc2Cl)cc1` [Compound 5-41]: the insecticidal activity in assay [1] and in assay [2] was 100% each time. The same compound returned an acaricidal activity in assay [3] of 100%.
`CCc1cc(C(F)(C(F)(F)F)C(F)(F)F)cc(C)c1NC(=O)c1ccc(CNC(C)=O)cc1F` [Compound 5-44] displayed an insecticidal activity in assay [1] of 100%. This compound came in with an acaricidal activity in assay [3] of 100%.
As for `CCc1cc(C(F)(C(F)(F)F)C(F)(F)F)cc(C)c1NC(=O)c1cc(F)c(CNC(C)=O)cc1F` [Compound 5-58], the insecticidal activity in assay [1] and in assay [2] was 100% each time. The same compound displayed an acaricidal activity in assay [3] of 100%.
For the compound `CCc1cc(C(F)(C(F)(F)F)C(F)(F)F)cc(C)c1NC(=O)c1cc(F)c(CNC(=O)CC2CC2)cc1F` [Compound 5-61], the insecticidal activity in assay [1] and in assay [2] was 100% in each case. This compound showed an acaricidal activity in assay [3] of 100%.
Turning to `CCc1cc(C(F)(C(F)(F)F)C(F)(F)F)cc(C)c1NC(=O)c1cc(F)c(CNC(=O)CC(F)(F)F)cc1F` [Compound 5-62], the insecticidal activity in assay [1] and in assay [2] was 100% in each case. This compound also returned an acaricidal activity in assay [3] of 100%.
As for `CCc1cc(C(F)(C(F)(F)F)C(F)(F)F)cc(C)c1NC(=O)c1ccc(CNC(C)=O)c(Cl)c1` [Compound 5-77], the insecticidal activity in assay [1] and in assay [2] was 100% in each case. The compound further yielded an acaricidal activity in assay [3] of 100%.
With `CCC(=O)NCc1ccc(C(=O)Nc2c(C)cc(C(F)(C(F)(F)F)C(F)(F)F)cc2CC)cc1Cl` [Compound 5-78], the insecticidal activity in assay [1] and in assay [2] was 100% each time. For the same compound, the acaricidal activity in assay [3] is given as 100%.
Regarding `CCc1cc(C(F)(C(F)(F)F)C(F)(F)F)cc(C)c1NC(=O)c1ccc(CNC(=O)CC(F)(F)F)c(Cl)c1` [Compound 5-81], the insecticidal activity in assay [1] and in assay [2] was 100% in each case. Moreover, the acaricidal activity in assay [3] was 100%.
With `CCc1cc(C(F)(C(F)(F)F)C(F)(F)F)cc(C)c1NC(=O)c1ccc(CNC(C)=O)c(Br)c1` [Compound 5-85], the insecticidal activity in assay [1] and in assay [2] was 100% throughout. This compound gave an acaricidal activity in assay [3] of 100%.
In turn, `CCC(=O)NCc1ccc(C(=O)Nc2c(Cl)cc(C(F)(C(F)(F)F)C(F)(F)F)cc2Cl)cc1` [Compound 5-224] returned an insecticidal activity in assay [1] of 100%. Further, in assay [3], the acaricidal activity turned out to be 100%.
